Data taken from patent US20230150951A1, “2,5- OR 2,6-DISUBSTITUTED HYDROQUINONE DERIVATIVES WITH AT LEAST ONE CARBOXY, SULFO OR AMIDO GROUP USEFUL AS MEDICAMENTS” (OM PHARMA SA, priority 2020, published 2023).
Where two headings read alike, the source gives them in different places.

Key:
Format in all cases: cell-based
TGF-beta = experiment: Cytokine release after LPS induction on human whole blood: TGFβ
Procedure: (§1) Aim of this in vitro method is to assess compounds effects on release of a panel of cytokines from whole blood following lipopolysaccharide (LPS) induced inflammatory reaction. Whole blood was incubated with compounds for 1 h prior to LPS induction. Cytokine levels in blood were measured using a multiplex FACS-based panel.
(§2) IC50 values determined for the tested compounds expressed in microM [μM] and the values for the inhibition of cytokines were listed for each compound.
(§3) Effect on cytokines release after LPS induction was performed on the compounds dissolved in DMSO or H2O to reach 10-fold concentrated stock solutions and dissolved in culture media.
(§4) Test system: Whole blood was removed from a single donor (into lithium heparin coated tubes; BD Vacutainer; 367886) and diluted 1:5 with RPMI 1640 (Thermo Fisher, 61870036). Within 30 minutes of sampling, blood was incubated with compounds for 1 h prior to LPS stimulation (O111:B4—Sigma L4391; 10 ng/ml final concentration). Stimulation continued under standard cell culture conditions (37° C. with 5% CO2) overnight (18 h), after which plates were centrifuged and supernatant removed and frozen at −80° C. until used for analyses.
(§5) Dilution of test compounds: 10×concentrated solutions (concerning to the final assay concentrations) of each test compound were prepared with the appropriate solvent (in DMSO or in water). These 10× compound solutions (10 μl) were then added to 90 μl pre-diluted whole blood (whole blood: RPMI1640, 1:5) resulting in the final assay concentration.
(§6) Test method: Diluted whole blood (80 μl) was pre-incubated with compounds (10 μl) to give final assay concentrations of 100, 30, 10, 3, 1, 0.3 and 0.1×10^−6M. Blood was incubated at 37° C. with 5% CO2 for 1 h. LPS was diluted in cell culture media to a concentration of […]; 10 μl was added to the whole blood to give a final concentration of 10 ng/ml. Plates were incubated at 37° C. for 18 h. Plates were centrifuged at 3,000 RPM for 5 minutes at 4° C. and supernatant removed and frozen at −80° C. until FACS analysis was carried out.
(§7) Cytokine release was measured using a custom multiplex system (ELISA Genie) according to manufacturers instructions. Prepared samples were run on an Attune NxT flow cytometer (Thermo Fisher).
(§8) Quantification of cytokine release inhibition: known concentration standards were run as part of the cytokine panel to allow quantification of each cytokine concentration in each sample. This was carried out using FCAP Array v3.0 software.
(§9) Results: The dose response relationship on cytokine release following LPS induction of inflammatory response in whole blood was assessed for all compounds. IC50 values were determined for each compound for a panel of cytokines (GM-CSF, IFN-gamma, IL-1beta, IL-2, IL-4, IL-5, IL-6, IL-8, IL-9, IL-10, IL-12p40, IL-13, IL-17A, IL-17F, IL-18, IL-21, IL-22, IL-33, TGF-beta, TNF-alpha, TNF-beta).

IL-17A = experiment: Cytokine release after LPS induction on human whole blood: IL-17A
Procedure: as §1, §2, §3, §4, §5, §6, §7, §8, §9

Human neutrophils = experiment: Neutrophil adhesion under static conditions; conditions: fMLP-stimulated adhesion to fibrinogen; method: 40 μM and 80 μM, concentration of the value not stated
How it was run: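 Donor buffy-coat neutrophils (3×10^6/ml, PBS with Ca/Mg, 10% FCS, pH 7.2) preincubated 30 min at 37° C with 40 μM or 80 μM compound, then stimulated 1 min at 37° C with 1 nM fMLP on fibrinogen-coated glass. Adherent cells fixed and counted by computer; mean ± SD, unpaired t-test.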

IL-6 = experiment: Cytokine release after LPS induction on human whole blood: IL-6
Procedure: as §1, §2, §3, §4, §5, §6, §7, §8, §9

IL-13 = experiment: Cytokine release after LPS induction on human whole blood: IL-13
Procedure: as §1, §2, §3, §4, §5, §6, §7, §8, §9

IL-2 = experiment: Cytokine release after LPS induction on human whole blood: IL-2
Procedure: as §1, §2, §3, §4, §5, §6, §7, §8, §9

GM-CSF = experiment: Cytokine release after LPS induction on human whole blood: GM-CSF
Procedure: as §1, §2, §3, §4, §5, §6, §7, §8, §9

[1] = Homo sapiens, LPS 10 ng/ml, 18 h, read-out: Whole Blood: TGFβ IC50
[2] = human whole blood, inhibition of LPS induced inflammation, read-out: IC50 TGFbeta
[3] = Homo sapiens, LPS 10 ng/ml, 18 h, read-out: Whole Blood: IL-17A IC50
[4] = human whole blood, inhibition of LPS induced inflammation, read-out: IC50 IL-17A
[5] = Homo sapiens, LPS 10 ng/ml, 18 h, read-out: Whole Blood: IL-6 IC50
[6] = human whole blood, inhibition of LPS induced inflammation, read-out: IC50 IL-6
[7] = Homo sapiens, LPS 10 ng/ml, 18 h, read-out: Whole Blood: IL-13 IC50
[8] = human whole blood, inhibition of LPS induced inflammation, read-out: IC50 IL-13
[9] = Homo sapiens, LPS 10 ng/ml, 18 h, read-out: Whole Blood: IL-2 IC50
[10] = human whole blood, inhibition of LPS induced inflammation, read-out: IC50 IL-2
[11] = Homo sapiens, LPS 10 ng/ml, 18 h, read-out: Whole Blood: GM-CSF IC50
[12] = human whole blood, inhibition of LPS induced inflammation, read-out: IC50 GM-CSF

Compound | IC50 (TGF-beta; [1]) | IC50 (TGF-beta; [2]) | IC50 (IL-17A; [3]) | IC50 (IL-17A; [4]) | IC50 (IL-6; [5]) | IC50 (IL-6; [6]) | IC50 (IL-13; [7]) | IC50 (IL-13; [8]) | IC50 (IL-2; [9]) | IC50 (IL-2; [10]) | IC50 (GM-CSF; [11]) | IC50 (GM-CSF; [12]) | Neutrophil adhesion inhibition (Human neutrophils)
O=C(O)Cc1cc(O)c(C(=O)Nc2ccccc2-c2nnn[nH]2)cc1O [IIIa-001aTz] | > 100 µM | 100 µM | 0.17 µM | 0.17 µM | 1.98 µM | 1.98 µM | 0.15 µM | 0.15 µM | > 100 µM | 100 µM | > 100 µM | 100 µM | 39.74%
O=C(O)Cc1cc(O)c(C(=O)Nc2c(C(=O)O)cccc2C(=O)O)cc1O [IIIa-013a, 2-(4-(carboxymethyl)-2,5-dihydroxybenzamido)isophthalic acid] | > 100 µM | 100 µM | 0.15 µM | 0.15 µM | 3.55 µM | 3.55 µM | 0.37 µM | 0.37 µM | 57.1 µM | 57.1 µM | 27.8 µM | 27.8 µM | 30.667%
O=C(O)c1cc(O)c(CN(Cc2cc(O)c(C(=O)O)cc2O)Cc2cc(O)c(C(=O)O)cc2O)cc1O [IIIc-061a, Tris(4-carboxy-2,5-dihydroxyphenylmethyl)amine] | > 100 µM | 100 µM | 0.04 µM | 0.04 µM | 0.18 µM | 0.18 µM | 0.31 µM | 0.31 µM | > 100 µM | 100 µM | 31.2 µM | 31.2 µM | 58.69%
O=C(O)c1cc(NC(=O)c2cc(O)cc(C(=O)Nc3ccc(O)c(C(=O)O)c3)c2O)ccc1O [IIc-007a, 5-(3-(3-carboxy-4-hydroxyphenylaminocarbonyl)-2,5-dihydroxybenzamido)-2-hydroxy benzoic acid] | > 100 µM | 100 µM | 0.01 µM | 0.01 µM | 0.05 µM | 0.05 µM | 0.25 µM | 0.25 µM | 12.8 µM | 12.8 µM | 26 µM | 26 µM | 64.61%
O=C(O)c1cc(O)ccc1NC(=O)c1cc(O)cc(C(=O)Nc2ccc(O)cc2C(=O)O)c1O [IIc-009a, 2-(3-(2-carboxy-4-hydroxyphenylaminocarbonyl)-2,5-dihydroxybenzamido)-5-hydroxyl benzoic acid] | > 100 µM | 100 µM | 0.001 µM | 0.001 µM | 0.27 µM | 0.27 µM | 0.13 µM | 0.13 µM | 19.6 µM | 19.6 µM | > 100 µM | 100 µM | 53.15%
COC(=O)c1cc(OC(C)=O)cc(CS(=O)(=O)Cc2cc(OC(C)=O)cc(C(=O)OC)c2OC(C)=O)c1OC(C)=O [IVc-059a-E2-A4] | > 100 µM | 100 µM | 0.02 µM | 0.02 µM | 0.99 µM | 0.99 µM | 18.7 µM | 18.7 µM | 10.4 µM | 10.4 µM | 1.83 µM | 1.83 µM | 87.5%
O=C(O)c1cc(O)c(C(=O)Nc2ccccc2C(=O)O)cc1O [Ia-001a, 4-(2-carboxyphenylaminocarbonyl)-2,5-dihydroxybenzoic acid] | > 100 µM | 100 µM | 0.1 µM | 0.1 µM | 1.24 µM | 1.24 µM | 26.4 µM | 26.4 µM | 94.3 µM | 94.3 µM | > 100 µM | 100 µM | 44.3%
O=C(O)c1cc(O)c(C(=O)Nc2ccccc2-c2nnn[nH]2)cc1O [Ia-001a-Tz, 4-(2-(1H-tetrazol-5-yl)phenyl-aminocarbonyl)-2,5-dihydroxybenzoic acid] | > 100 µM | 100 µM | 0.11 µM | 0.11 µM | 0.75 µM | 0.75 µM | 32.1 µM | 32.1 µM | 7.99 µM | 7.99 µM | > 100 µM | 100 µM | 69.75%
O=C(O)c1cc(O)c(C(=O)Nc2ccccc2S(=O)(=O)O)cc1O [Ia-001c, 2,5-dihydroxy-4-(2-sulfophenylaminocarbonyl)benzoic acid] | > 100 µM | 100 µM | 0.09 µM | 0.09 µM | 0.95 µM | 0.95 µM | 86.1 µM | 86.1 µM | 12.8 µM | 12.8 µM | > 100 µM | 100 µM | 31.33%

Now from value to molecule, other results behind:

IC50 (TGF-beta; [1]) | IC50 (TGF-beta; [2]) | IC50 (IL-17A; [3]) | IC50 (IL-17A; [4]) | IC50 (IL-6; [5]) | IC50 (IL-6; [6]) | IC50 (IL-13; [7]) | IC50 (IL-13; [8]) | IC50 (IL-2; [9]) | IC50 (IL-2; [10]) | IC50 (GM-CSF; [11]) | IC50 (GM-CSF; [12]) | Compound | Neutrophil adhesion inhibition (Human neutrophils)
> 100 µM | 100 µM | 1.32 µM | 1.32 µM | 0.19 µM | 0.19 µM | 4.73 µM | 4.73 µM | 24.2 µM | 24.2 µM | > 100 µM | 100 µM | CC(=O)N(Cc1cc(O)c(C(=O)O)cc1O)Cc1cc(O)c(C(=O)O)cc1O [IIIc-057a, N,N-Bis(4-carboxy-2,5-dihydroxyphenylmethyl)acetamide] | 40.04%
> 100 µM | 100 µM | > 100 µM | 100 µM | 2.2 µM | 2.2 µM | 29.9 µM | 29.9 µM | 1.67 µM | 1.67 µM | > 100 µM | 100 µM | O=C(O)c1ccccc1CNC(=O)c1cc(O)cc(C(=O)O)c1O [IIa-053a, 3-(2-Carboxyphenylmethylaminocarbonyl)-2,5-dihydroxybenzoic acid] | 20%
> 100 µM | 100 µM | 0.1 µM | 0.1 µM | 0.21 µM | 0.21 µM | 55.9 µM | 55.9 µM | 3.82 µM | 3.82 µM | > 100 µM | 100 µM | O=C(O)c1cc(O)cc(CSCc2cc(O)cc(C(=O)O)c2O)c1O [IVc-058a, 3-((2,5-Dihydroxy-3-carboxyphenyl)methylthiomethyl)-2,5-dihydroxybenzoic acid] | 43.5%
> 100 µM | 100 µM | 0.16 µM | 0.16 µM | 0.11 µM | 0.11 µM | > 100 µM | 100 µM | 21.2 µM | 21.2 µM | > 100 µM | 100 µM | O=C(O)c1cc(O)cc(CS(=O)(=O)Cc2cc(O)cc(C(=O)O)c2O)c1O [IVc-059a, 3-((2,5-Dihydroxy-3-carboxyphenyl)methylsulfonylmethyl)-2,5-dihydroxybenzoic acid] | 10%
